Results from the supplement of paper PMC10307832.

Legend:
Experiment in all cases: relative viability (nuclei count vs DMSO), 5 days (fraction); higher = more cells survive
[1] = compound: CS(=O)(=O)c1ccc(C(=O)Nc2ccc(Cl)c(-c3ccccn3)c2)c(Cl)c1 [Vismodegib] + C[C@]1(O)C[C@@H](c2nc(-c3ccc4ccc(-c5ccccc5)nc4c3)c3c(N)nccn32)C1 [Linsitinib] (partner 1 µM)
How it was run: (§1)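 Nuclei were stained with Hoechst during a one-step fixation (final 0.05% Triton X-100, 1% formaldehyde, 1 ug/ml Hoechst) carried out 5 days after dosing, then counted on 4× images. The cells, lung cancer lines in 1536-well plates, had been dosed by pin tool the day after seeding with one drug alone or a fixed anchor-drug dose plus five library-drug doses (not always all listed) in √10 steps. Relative viability is the nuclei count in treated wells divided by that in vehicle wells, and each value is the median of duplicate plates.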

[2] = compound: CS(=O)(=O)c1ccc(C(=O)Nc2ccc(Cl)c(-c3ccccn3)c2)c(Cl)c1 [Vismodegib] + CC(C)C[C@H](NC(=O)[C@H](Cc1ccccc1)NC(=O)c1cnccn1)B(O)O [Bortezomib] (partner 0.002 µM)
How it was run: as §1

[3] = compound: CS(=O)(=O)c1ccc(-c2cnc(N)c(C(=O)Nc3ccccc3)n2)cc1 [VE-821] + CS(=O)(=O)CCNCc1ccc(-c2ccc3ncnc(Nc4ccc(OCc5cccc(F)c5)c(Cl)c4)c3c2)o1 [Lapatinib] (partner 2 µM)
How it was run: as §1

[4] = compound: CS(=O)(=O)c1ccc(-c2cnc(N)c(C(=O)Nc3ccccc3)n2)cc1 [VE-821] + CC1(C)CCC(c2ccc(Cl)cc2)=C(CN2CCN(c3ccc(C(=O)NS(=O)(=O)c4ccc(N[C@H](CCN5CCOCC5)CSc5ccccc5)c(S(=O)(=O)C(F)(F)F)c4)cc3)CC2)C1 [Navitoclax] (partner 0.5 µM)
How it was run: as §1

Cell Line	relative viability ([1]; first compound 0.08 µM)	relative viability ([1]; first compound 0.253 µM)	relative viability ([1]; first compound 0.8 µM)	relative viability ([1]; first compound 2.53 µM)	relative viability ([1]; first compound 8 µM)	relative viability ([2]; first compound 0.08 µM)	relative viability ([2]; first compound 0.253 µM)	relative viability ([2]; first compound 0.8 µM)	relative viability ([2]; first compound 2.53 µM)	relative viability ([2]; first compound 8 µM)	relative viability ([3]; first compound 0.08 µM)	relative viability ([3]; first compound 0.253 µM)	relative viability ([3]; first compound 0.8 µM)	relative viability ([3]; first compound 2.53 µM)	relative viability ([3]; first compound 8 µM)	relative viability ([4]; first compound 0.08 µM)	relative viability ([4]; first compound 0.253 µM)	relative viability ([4]; first compound 0.8 µM)	relative viability ([4]; first compound 2.53 µM)	relative viability ([4]; first compound 8 µM)
NCI-H661	0.5	0.497	0.575	0.522	0.579	0.821	0.806	0.756	0.837	0.829	0.592	0.427	0.396	0.486	0.381	–	–	–	–	–
NCI-H1944	1.15	1.33	1.16	1.19	1.2	–	–	–	–	–	1.09	0.811	0.748	0.935	0.386	1.16	0.997	0.92	1.1	0.643
NCI-H2228	0.972	0.855	0.835	0.467	0.763	1.08	0.954	0.958	0.835	0.965	1.18	1.23	1.14	1.04	0.37	0.943	1.01	0.811	0.842	0.741
NCI-H1792	0.532	0.558	0.409	0.572	0.503	0.953	0.974	0.929	0.946	0.93	1.04	0.964	0.913	0.966	0.816	0.66	0.639	0.63	0.685	0.623
HCC-44	0.668	0.581	0.66	0.715	0.71	0.918	0.816	0.897	0.841	0.901	1.04	1.07	1.07	1.09	1.08	1.01	0.992	0.975	1.19	1.08
